According to patent publication US8163771B2, “11 β-HSD1 modulators” (Exelixis, Inc., priority 2008, dated 2012):

Each compound was assayed against T1, recombinant human 11 β-HSD1 (Homo sapiens, UniProt P28845) (assay: 11 β-HSD1 SPA Assay (Scintillation Proximity Assay)).
T1 construct: made in house; host or cells: E. coli
Format: biochemical
Method in brief: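 Scintillation proximity read-out of cortisol formed from 40 nM [3H]cortisone by purified recombinant human enzyme (30-100 nM, E. coli) with 1 mM NADPH, pH7.4, 2 hours at room temperature; beads with cortisol antibody and glycyrrhetinic acid stop the reaction, read next day. IC50 derived from inhibition normalised to background and maximal wells.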

T1 sequence (P28845 whole entry): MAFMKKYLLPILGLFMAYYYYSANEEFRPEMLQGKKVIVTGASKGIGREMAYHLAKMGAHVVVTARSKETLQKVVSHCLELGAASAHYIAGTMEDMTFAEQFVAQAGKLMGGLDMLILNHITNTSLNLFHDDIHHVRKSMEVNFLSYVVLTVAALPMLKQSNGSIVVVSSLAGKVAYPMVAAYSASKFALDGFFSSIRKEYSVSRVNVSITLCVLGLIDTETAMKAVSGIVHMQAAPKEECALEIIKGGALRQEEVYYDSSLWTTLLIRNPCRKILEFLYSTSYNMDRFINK

Row | SMILES | IC50 [nM]
1 | CC(C)(Oc1ccc(F)cc1Cl)C(=O)NC1CC2CCC(C1)N2c1ccc(C(=O)NC2CC2(F)F)cn1 (stereo not drawn) [Example 349, 6-(3-endo-{[2-(2-chloro-4-fluorophenoxy)-2-methylpropanoyl]amino}-8-azabicyclo[3.2.1]oct-8-yl)-N-(2,2-difluorocyclopropyl)pyridine-3-carboxamide] | < 200
2 | CC(C)(CN1CCCC1)NC(=O)c1ccc(N2[C@@H]3CC[C@H]2C[C@@H](NC(=O)C(C)(C)Oc2ccc(Cl)cc2Cl)C3)nc1 [Example 350, 6-(3-endo-{[2-(2,4-dichlorophenoxy)-2-methylpropanoyl]amino}-8-azabicyclo[3.2.1]oct-8-yl)-N-[2-methyl-1-(pyrrolidin-1-yl)propan-2-yl]pyridine-3-carboxamide] | < 200
3 | CN(C)S(=O)(=O)c1cc(Cl)ccc1OC(C)(C)C(=O)N[C@H]1C[C@H]2CC[C@@H](C1)N2c1ccc(C(=O)NCC(F)(F)F)cn1 [Example 351, 6-[3-endo-({2-[4-chloro-2-(dimethylsulfamoyl)phenoxy]-2-methylpropanoyl}amino)-8-azabicyclo[3.2.1]oct-8-yl]-n-(2,2,2-trifluoroethyl)pyridine-3-carboxamide] | < 200
4 | COCCOc1cc(Cl)ccc1OC(C)(C)C(=O)N[C@H]1C[C@H]2CC[C@@H](C1)N2c1ccc(C(=O)NCC(F)(F)F)cn1 [Example 352, 6-[3-endo-({2-[4-chloro-2-(2-methoxyethoxy)phenoxy]-2-methylpropanoyl}amino)-8-azabicyclo[3.2.1]oct-8-yl]-N-(2,2,2-trifluoroethyl)pyridine-3-carboxamide] | < 200
5 | CC(C)c1cc(Cl)ccc1OC(C)(C)C(=O)N[C@H]1C[C@H]2CC[C@@H](C1)N2c1ccc(C(=O)NCC(F)(F)F)cn1 [Example 353, 6-[3-endo-({2-[4-chloro-2-(propan-2-yl)phenoxy]-2-methylpropanoyl}amino)-8-azabicyclo[3.2.1]oct-8-yl]-N-(2,2,2-trifluoroethyl)pyridine-3-carboxamide] | < 200
6 | CC(C)(Oc1nccc2ccccc12)C(=O)N[C@H]1C[C@H]2CC[C@@H](C1)N2c1ccc(C(=O)NCC(F)(F)F)cn1 [Example 354, 6-(3-endo-{[2-(isoquinolin-1-yloxy)-2-methylpropanoyl]amino}-8-azabicyclo[3.2.1]oct-8-yl)-N-(2,2,2-trifluoroethyl)pyridine-3-carboxamide] | < 200
7 | CC(C)(Oc1ccc(Cl)cc1Cl)C(=O)N[C@H]1C[C@H]2CC[C@@H](C1)N2c1ccc(C(=O)NCC(F)F)cn1 [Example 355, 6-(3-endo-{[2-(2,4-dichlorophenoxy)-2-methylpropanoyl]amino}-8-azabicyclo[3.2.1]oct-8-yl)-N-(2,2-difluoroethyl)pyridine-3-carboxamide] | < 200
8 | CC(C)(Oc1ccc(Cl)cc1S(C)(=O)=O)C(=O)NC1CC2CCC(C1)N2c1ccc(C(=O)NC2CC2(F)F)cn1 (stereo not drawn) [Example 357, 6-[3-endo-({2-[4-chloro-2-(methylsulfonyl)phenoxy]-2-methylpropanoyl}amino)-8-azabicyclo[3.2.1]oct-8-yl]-N-(2,2-difluorocyclopropyl)pyridine-3-carboxamide] | < 200
9 | CC(C)(Oc1ccc(Cl)cc1N1CCOCC1)C(=O)N[C@H]1C[C@H]2CC[C@@H](C1)N2c1ccc(C(=O)NCC(F)(F)F)cn1 [Example 359, 6-[3-endo-({2-[4-chloro-2-(morpholin-4-yl)phenoxy]-2-methylpropanoyl}amino)-8-azabicyclo[3.2.1]oct-8-yl]-N-(2,2,2-trifluoroethyl)pyridine-3-carboxamide] | < 200
10 | CC(C)(Oc1ccc(Cl)cc1C(N)=O)C(=O)N[C@H]1C[C@H]2CC[C@@H](C1)N2c1ccc(C(=O)NCC(F)(F)F)cn1 [Example 360, 6-(3-endo-{[2-(2-carbamoyl-4-chlorophenoxy)-2-methylpropanoyl]amino}-8-azabicyclo[3.2.1]oct-8-yl)-N-(2,2,2-trifluoroethyl)pyridine-3-carboxamide] | < 200
11 | CC(C)(Oc1cc(OCCO)c(Cl)cc1Cl)C(=O)N[C@H]1C[C@H]2CC[C@@H](C1)N2c1ccc(C(=O)NCC(F)(F)F)cn1 [Example 361, 6-[3-endo-({2-[2,4-dichloro-5-(2-hydroxyethoxy)phenoxy]-2-methylpropanoyl}amino)-8-azabicyclo[3.2.1]oct-8-yl]-N-(2,2,2-trifluoroethyl)pyridine-3-carboxamide] | < 200
12 | CC(C)(Oc1ccc(Cl)cc1Cl)C(=O)N[C@H]1C[C@H]2CC[C@@H](C1)N2c1ccc(C(=O)NCCN2CCOCC2)cn1 [Example 362, 6-(3-endo-{[2-(2,4-dichlorophenoxy)-2-methylpropanoyl]amino}-8-azabicyclo[3.2.1]oct-8-yl)-N-[2-(morpholin-4-yl)ethyl]pyridine-3-carboxamide] | < 200
13 | CC(C)(Oc1ccc(Cl)cc1OC(F)(F)F)C(=O)N[C@H]1C[C@H]2CC[C@@H](C1)N2c1ccc(C(=O)NCC(F)(F)F)cn1 [Example 363, 6-[3-endo-({2-[4-chloro-2-(trifluoromethoxy)phenoxy]-2-methylpropanoyl}amino)-8-azabicyclo[3.2.1]oct-8-yl]-N-(2,2,2-trifluoroethyl)pyridine-3-carboxamide] | < 200
14 | CC(C)(Oc1ccc(Cl)cc1C(F)F)C(=O)N[C@H]1C[C@H]2CC[C@@H](C1)N2c1ccc(C(=O)NCC(F)(F)F)cn1 [Example 364, 6-[3-endo-({2-[4-chloro-2-(difluoromethyl)phenoxy]-2-methylpropanoyl}amino)-8-azabicyclo[3.2.1]oct-8-yl]-N-(2,2,2-trifluoroethyl)pyridine-3-carboxamide] | < 200
15 | CC(C)(Oc1ccc(Cl)cc1C(F)F)C(=O)N[C@H]1C[C@H]2CC[C@@H](C1)N2c1ccc(S(C)(=O)=O)cn1 [Example 365, 2-[4-chloro-2-(difluoromethyl)phenoxy]-2-methyl-N-{8-[5-(methylsulfonyl)pyridin-2-yl]-8-azabicyclo[3.2.1]oct-3-endo-yl}propanamide] | < 200
16 | CC(C)(Oc1cccc2[nH]ccc12)C(=O)N[C@H]1C[C@H]2CC[C@@H](C1)N2c1ccc(C(=O)NCC(F)(F)F)cn1 [Example 366, 6-(3-endo-{[2-(1h-indol-4-yloxy)-2-methylpropanoyl]amino}-8-azabicyclo[3.2.1]oct-8-yl)-N-(2,2,2-trifluoroethyl)pyridine-3-carboxamide] | < 200
17 | CC(C)(Oc1ccc(Cl)cc1Cl)C(=O)N[C@H]1C[C@H]2CC[C@@H](C1)N2c1ccc(C(=O)NCCO)cn1 [Example 367, 6-(3-endo-{[2-(2,4-dichlorophenoxy)-2-methylpropanoyl]amino}-8-azabicyclo[3.2.1]oct-8-yl)-N-(2-hydroxyethyl)pyridine-3-carboxamide] | < 200
18 | CC(C)NC(=O)c1ccc(N2[C@@H]3CC[C@H]2C[C@@H](NC(=O)C(C)(C)Oc2ccc(Cl)cc2S(C)(=O)=O)C3)nc1 [Example 368, 6-[3-endo-({2-[4-chloro-2-(methylsulfonyl)phenoxy]-2-methylpropanoyl}amino)-8-azabicyclo[3.2.1]oct-8-yl]-N-(propan-2-yl)pyridine-3-carboxamide] | < 200
19 | CC(C)(Oc1ccc(F)cc1C(F)(F)F)C(=O)NC1CC2CCC(C1)N2c1ccc(C(=O)NC2CC2(F)F)cn1 (stereo not drawn) [Example 369, N-(2,2-difluorocyclopropyl)-6-[3-endo-({2-[4-fluoro-2-(trifluoromethyl)phenoxy]-2-methylpropanoyl}amino)-8-azabicyclo[3.2.1]oct-8-yl]pyridine-3-carboxamide] | < 200
20 | CC(C)NC(=O)c1ccc(N2[C@@H]3CC[C@H]2C[C@@H](NC(=O)C(C)(C)Oc2ccc(Cl)cc2C(F)(F)F)C3)nc1 [Example 370, 6-[3-endo-({2-[4-chloro-2-(trifluoromethyl)phenoxy]-2-methylpropanoyl}amino)-8-azabicyclo[3.2.1]oct-8-yl]-N-(propan-2-yl)pyridine-3-carboxamide] | < 200
21 | CC(C)(Oc1ccc(F)cc1Cl)C(=O)N[C@H]1C[C@H]2CC[C@@H](C1)N2c1ccc(C(=O)NCC(F)F)cn1 [Example 371, 6-(3-endo-{[2-(2-chloro-4-fluorophenoxy)-2-methylpropanoyl]amino}-8-azabicyclo[3.2.1]oct-8-yl)-N-(2,2-difluoroethyl)pyridine-3-carboxamide] | < 200
22 | CC(C)(Oc1ccc(F)cc1C(F)(F)F)C(=O)N[C@H]1C[C@H]2CC[C@@H](C1)N2c1ccc(C(=O)NCC(F)F)cn1 [Example 372, N-(2,2-difluoroethyl)-6-[3-endo-({2-[4-fluoro-2-(trifluoromethyl)phenoxy]-2-methylpropanoyl}amino)-8-azabicyclo[3.2.1]oct-8-yl]pyridine-3-carboxamide] | < 200
23 | C[C@@H](NC(=O)c1ccc(N2C3CCC2CC(NC(=O)C(C)(C)Oc2ccc(Cl)cc2Cl)C3)nc1)C(F)(F)F (stereo partly drawn) [Example 373, 6-(3-endo-{[2-(2,4-dichlorophenoxy)-2-methylpropanoyl]amino}-8-azabicyclo[3.2.1]oct-8-yl)-N-[(2R)-1,1,1-trifluoropropan-2-yl]pyridine-3-carboxamide] | < 200
24 | C[C@H](NC(=O)c1ccc(N2C3CCC2CC(NC(=O)C(C)(C)Oc2ccc(Cl)cc2Cl)C3)nc1)C(F)(F)F (stereo partly drawn) [Example 374, 6-(3-endo-{[2-(2,4-dichlorophenoxy)-2-methylpropanoyl]amino}-8-azabicyclo[3.2.1]oct-8-yl)-N-[(2S)-1,1,1-trifluoropropan-2-yl]pyridine-3-carboxamide] | < 200
25 | CC(C)(Oc1ccc(Cl)cc1C(=O)O)C(=O)N[C@H]1C[C@H]2CC[C@@H](C1)N2c1ccc(C(=O)NCC(F)(F)F)cn1 [Example 375, 5-chloro-2-({2-methyl-1-oxo-1-[(8-{5-[(2,2,2-trifluoroethyl)carbamoyl]pyridin-2-yl}-8-azabicyclo[3.2.1]oct-3-endo-yl)amino]propan-2-yl}oxy)benzoic acid] | < 200
